Eleven compounds from patent publication US10703755B2, “Substituted purine derivative” (SUMITOMO DAINIPPON PHARMA CO., LTD., priority 2016, dated 2020) can be followed below.

This experiment addresses human TLR7 (Homo sapiens (Human), UniProt Q9NYK1). Kind of experiment: Test for evaluating the inhibition of the activation of human TLR7 (SEAP reporter, TLR7/NF-κB/SEAPorter HEK293 cell). Format: cell-based. The following applies: R-848 200 nmol/L; for inhibitory effect against TLR7 in the test for evaluating inhibition of the activation of TLR7: SEAP activity, result in words; for pIC50: SEAP reporter. Put shortly:
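The readout is secreted alkaline phosphatase under NF-κB response-element control in TLR7/NF-κB/SEAPorter HEK293 cells, which stably express full-length human TLR7. Cells were plated at 5×10^4 per well and grown overnight at 37° C, 5% CO2, in DMEM/10% FBS/blasticidin.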

pIC50: −log10 of the molar value.

Sequence of human TLR7 (Q9NYK1 27-1049): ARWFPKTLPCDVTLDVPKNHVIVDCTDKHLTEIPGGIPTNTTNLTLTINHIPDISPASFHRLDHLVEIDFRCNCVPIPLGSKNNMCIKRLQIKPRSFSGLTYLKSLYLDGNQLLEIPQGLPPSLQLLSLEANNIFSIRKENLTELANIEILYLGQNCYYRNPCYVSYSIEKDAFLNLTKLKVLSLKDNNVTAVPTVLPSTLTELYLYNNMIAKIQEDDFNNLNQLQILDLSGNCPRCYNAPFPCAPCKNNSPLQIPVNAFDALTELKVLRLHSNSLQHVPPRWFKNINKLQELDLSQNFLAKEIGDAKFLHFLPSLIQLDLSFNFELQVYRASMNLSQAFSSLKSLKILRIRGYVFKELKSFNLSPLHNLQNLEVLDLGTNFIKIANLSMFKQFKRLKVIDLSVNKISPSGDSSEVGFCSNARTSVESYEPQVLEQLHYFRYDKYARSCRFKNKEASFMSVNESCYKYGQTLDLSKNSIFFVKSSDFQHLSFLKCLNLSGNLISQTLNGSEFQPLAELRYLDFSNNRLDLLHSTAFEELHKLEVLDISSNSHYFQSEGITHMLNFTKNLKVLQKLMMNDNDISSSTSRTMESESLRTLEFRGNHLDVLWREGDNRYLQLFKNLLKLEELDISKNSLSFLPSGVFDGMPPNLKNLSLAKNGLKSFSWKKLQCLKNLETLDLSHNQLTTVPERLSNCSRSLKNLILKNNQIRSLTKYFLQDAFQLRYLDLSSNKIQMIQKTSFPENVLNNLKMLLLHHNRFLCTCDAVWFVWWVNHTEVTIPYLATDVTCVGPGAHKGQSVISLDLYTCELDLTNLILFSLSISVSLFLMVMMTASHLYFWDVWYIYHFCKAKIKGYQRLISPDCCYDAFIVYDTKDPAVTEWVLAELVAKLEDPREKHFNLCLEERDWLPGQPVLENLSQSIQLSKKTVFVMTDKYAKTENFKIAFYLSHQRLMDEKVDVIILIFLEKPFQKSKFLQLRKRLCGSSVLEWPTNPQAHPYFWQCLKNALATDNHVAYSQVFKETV

As a reminder, the pIC50 is −log10 of the IC50, conventionally taken in molar units. As to `COc1nc(C)c2nc(-c3cncc(F)c3)n(Cc3ccc(O[C@H]4C[C@H]5CC[C@@H](C4)N5)cc3F)c2n1` [Example 433], the “inhibitory effect against TLR7 in the test for evaluating inhibition of the activation of TLR7” value (“inhibitory effect against TLR7” for short) was “potent inhibitory effect against TLR7” and the pIC50 was 8.05.

Take `COc1nc(C)c2nc(-c3cncc(F)c3)n(Cc3ccc(OCC4CNC4)cc3F)c2n1` [Example 434]: the pIC50 is 7.05.

On to `COc1nc(C)c2nc(-c3cncc(F)c3)n(Cc3ccc(C4CCNC4)cc3F)c2n1` (stereo not shown) [Example 435], for which the pIC50 was 7.74.

Take `COc1nc(C)c2nc(-c3cncc(C#N)c3)n(Cc3ccc(O[C@H]4C[C@H]5CC[C@@H](C4)N5)cc3F)c2n1` [Example 436]: the “inhibitory effect against TLR7” value is “potent inhibitory effect against TLR7” and the pIC50 is 7.43.

As to `COc1nc(C)c2nc(-c3cccnc3)n(Cc3ccc(O[C@H]4C[C@H]5CC[C@@H](C4)N5)cc3F)c2n1` [Example 437], the “inhibitory effect against TLR7” value is reported as “potent inhibitory effect against TLR7” and the negative logarithm of the IC50 (pIC50) is 7.80.

On to `COc1nc(C)c2nc(-c3ccc(C(N)=O)nc3)n(Cc3ccc(OC4CN5CCC4CC5)cc3F)c2n1` (stereo not shown) [Example 439], for which the negative-log IC50 (pIC50) was 6.87.

`COc1nc(C)c2nc(-c3ccc4ncccc4c3)n(Cc3ccc(OC4CN5CCC4CC5)cc3F)c2n1` (stereo not shown) [Example 440] showed a pIC50 of 7.08.

Compound `COc1nc(C)c2nc(-c3cccnn3)n(Cc3ccc(OC4CN5CCC4CC5)cc3F)c2n1` (stereo not shown) [Example 441] gave a pIC50 of 6.75.

With `COc1nc(C)c2nc(-c3cncc(F)c3)n(Cc3cc(C4CN5CCC4CC5)ccc3F)c2n1` (stereo not shown) [Example 443, 9-[5-(1-azabicyclo[2.2.2]oct-3-yl)-2-fluorobenzyl]-8-(5-fluoropyridin-3-yl)-2-methoxy-6-methyl-9H-purine], the “inhibitory effect against TLR7” value was “potent inhibitory effect against TLR7” and the pIC50 is 7.77.

For the compound `COc1nc(C)c2nc(-c3cncnc3)n(Cc3ccc([C@@H]4CN5CCC4CC5)cc3F)c2n1` [Example 444, 9-{4-[(3R)-1-Azabicyclo[2.2.2]oct-3-yl]-2-fluorobenzyl}-2-methoxy-6-methyl-8-(pyrimidin-5-yl)-9H-purine], the pIC50 was 7.01.

`COc1nc(C)c2nc(-c3cncnc3)n(Cc3ccc([C@H]4CN5CCC4CC5)cc3F)c2n1` [Example 445, 9-{4-[(3S)-1-azabicyclo[2.2.2]oct-3-yl]-2-fluorobenzyl}-2-methoxy-6-methyl-8-(pyrimidin-5-yl)-9H-purine]: the “inhibitory effect against TLR7” value is on record as “potent inhibitory effect against TLR7” and the pIC50 is 7.68.
